Holding throughout (type): cell-based
For one data set, the system named is Ba/F3 (D770_N771insSVD). Description: Cellular growth inhibition assay (CellTiter-Glo), Ba/F3 (D770_N771insSVD). To be noted: Mus musculus, BaF3, 72 h; 3 days of incubation; read-out: Ba/F3 (D770_N771 insSVD) CC50. As for the experimental part: (§1) Example E. Cellular Growth Inhibition Assay
(§2) Ba/F3(Empty vector) (Signosis), Ba/F3(Wild type) (Signosis), Ba/F3(L^858R+T790M) (Signosis), Ba/F3(A767_dupASV) (Signosis), Ba/F3(D770_N771insSVD) (Signosis), Ba/F3(H773_V774insNPH) (Signosis) were seeded at a density of 4000 cells per well in a CellBIND® 384-well Flat Clear Bottom Black Polystyrene Microplates (Coming, USA, Cat #3770) in 45 μl total volume of RPMI (PanEco, Cat #C330, Russia) with […] (HyClone, Cat #SV30160.03) and with 10 ng/ml rmIL-3 (RD systems, USA, Cat #403-ML-025) (for BaBF3(Empty vector)) and with 10 ng/ml rhEGF (ThermoFisher, USA, Cat #PHG0311L) (for BaCF3(Wild type)). 500× compounds solutions in DMSO (Sigma Cat #D2650) were prepared into Cmpnds plate (DiamondWell Plate, Axigen, Cat #P-384-120SQ-C—S) and DMSO only control was included. 1.l of 500× compounds (Cmpnds plate) was added to 49 µl of culture medium into Dilution plate (Diamond Well Plate, Axigen, Cat #P-384-120SQ-C—S), mixed and then 5 μl of 10× compounds solutions were transferred to cells followed by centrifugation at 100 g for 1 min. Final DMSO concentration was 0.2% o. After 3 days of incubation 10.l of CellTiter-Glo (Promega, CAT #G7572) were added to the cells, plate was centrifuged at 100 g for 1 min and luminescence signal was measured using Microplate Reader (CLARIOStar).
(In general: Cellular ATP, detected with luciferase, serves as a proxy for viable cell number.)

In a further data set the test system is Ba/F3 (L858R + T790M). Description: Cellular growth inhibition assay (CellTiter-Glo), Ba/F3 (L858R+T790M). To be noted: Mus musculus, BaF3, 72 h; 3 days of incubation. As for the experimental part:
as §1, §2

Another data set deals with Ba/F3 (A767_dupASV). Description: Cellular growth inhibition assay (CellTiter-Glo), Ba/F3 (A767_dupASV). To be noted: Mus musculus, BaF3, 72 h; 3 days of incubation; read-out: Ba/F3 (A767_dup ASV) CC50. As for the experimental part:
as §1, §2

Another data set relates to Ba/F3 (H773_V774insSVD). The experiment in a line: Cellular growth inhibition assay (CellTiter-Glo), Ba/F3 (H773_V774insSVD). To be noted: Mus musculus, BaF3, 72 h; 3 days of incubation; read-out: Ba/F3 (H773_V774 insSVD) CC50.
Data set [1] is described as follows: Cellular growth inhibition assay (CellTiter-Glo), Ba/F3 (Empty vector). The note with it: mouse, Ba/F3 cells with empty vector; Ba/F3 (Empty vector) with 10 ng/ml rmIL-3, 3 days of incubation. As for the experimental part: as §1, §2
A further data set has as its system Ba/F3 (EGFRwt). The experiment in a line: Cellular growth inhibition assay (CellTiter-Glo), Ba/F3 (EGFRwt). To be noted: Mus musculus, BaF3, 72 h; Ba/F3 (Wild type) with 10 ng/ml rhEGF, 3 days of incubation. As for the experimental part: as §1, §2

Consider `COc1c(F)cccc1Nc1c2[nH]c3c1C(=O)NCC3C/C=C\CCCC(=O)N1CCCC(COc3cnccc3-2)C1` (stereo not drawn) [Compound 117, 25-[(3-Fluoro-2-methoxyphenyl)amino]-7,8,9,10,14,15,18,18a,19,20-decahydro-6H-7,11-methano-22,24-methenodipyrido[3,4-b:4′,3′-f][1,5,15]oxadiazacycloicosine-12,21(13H,23H)-dione], for which the CC50 with Ba/F3 (D770_N771insSVD) is 0.1 to 1 µM; in the data set on Ba/F3 (L858R + T790M) it was 1 to 10 µM; with Ba/F3 (A767_dupASV), 0.01 to 0.1 µM; with Ba/F3 (H773_V774insSVD), 1 to 10 µM; in the data set with Ba/F3 (EGFRwt), 0.1 to 1 µM. Further, in data set [1], the CC50 at 3 days is > 10 µM.

As for `COc1c(F)cccc1Nc1c2[nH]c3c1C(=O)NCC3C/C=C/CCCC(=O)N1CCCC(COc3cnccc3-2)C1` (stereo not drawn) [Compound 118, 25-[(3-Fluoro-2-methoxyphenyl)amino]-7,8,9,10,14,15,18,18a,19,20-decahydro-6H-7,11-methano-22,24-methenodipyrido[3,4-b:4′,3′-f][1,5,15]oxadiazacycloicosine-12,21(13H,23H)-dione], the CC50 with Ba/F3 (D770_N771insSVD) was 1 to 10 µM; in the data set on Ba/F3 (L858R + T790M), 1 to 10 µM; with Ba/F3 (A767_dupASV), 0.1 to 1 µM; in the data set on Ba/F3 (H773_V774insSVD) it was 1 to 10 µM; with Ba/F3 (EGFRwt) it was 1 to 10 µM. Also, the CC50 at 3 days in data set [1] lay within 1 to 10 µM.

`COc1c(F)cccc1Nc1c2[nH]c3c1C(=O)NCC3CCCCCCC(=O)N1CCCC(COc3cnccc3-2)C1` (stereo not drawn) [Compound 119, 25-[(3-Fluoro-2-methoxyphenyl)amino]-7,8,9,10,14,15,16,17,18,18a,19,20-dodecahydro-6H-7,11-methano-22,24-methenodipyrido[3,4-b:4′,3′-f][1,5,15]oxadiazacycloicosine-12,21(13H,23H)-dione]: the CC50 is 1 to 10 µM with Ba/F3 (D770_N771insSVD); > 10 µM in the data set on Ba/F3 (L858R + T790M); 0.1 to 1 µM with Ba/F3 (A767_dupASV); > 10 µM with Ba/F3 (H773_V774insSVD); 1 to 10 µM in the data set on Ba/F3 (EGFRwt). Moreover, the CC50 at 3 days in data set [1] is > 10 µM.

`COc1c(F)cccc1Nc1c2[nH]c3c1C(=O)NCC3CCCCN(C)CCOc1cnccc1-2` (stereo not drawn) [Compound 127, 19-[(3-Fluoro-2-methoxyphenyl)amino]-8-methyl-6,7,8,9,10,11,12,12a,13,14-decahydro-16,18-methenodipyrido[3,4-i:4′,3′-m][1,4,11]oxadiazacyclotetradecin-15(17H)-one]: the CC50 with Ba/F3 (D770_N771insSVD) is > 10 µM; in the data set with Ba/F3 (L858R + T790M), > 10 µM; in the data set with Ba/F3 (A767_dupASV), 1 to 10 µM; with Ba/F3 (H773_V774insSVD) it was > 10 µM; in the data set with Ba/F3 (EGFRwt), 1 to 10 µM. For the same compound, in data set [1], the CC50 at 3 days was > 10 µM.

With `COc1c(F)cccc1Nc1c2[nH]c3c1C(=O)NC(CC=CCOCCOc1cnccc1-2)C3` (stereo not drawn) [Compound 128, 20-(3-fluoro-2-methoxyanilino)-2,3,5,8,9,10-hexahydro-9,13-methano-12,15-(metheno)pyrido[3,4-e][1,4,8,12]dioxadiazacycloheptadecin-11(14H)-one], the CC50 with Ba/F3 (D770_N771insSVD) was > 10 µM; in the data set with Ba/F3 (L858R + T790M), > 10 µM; in the data set with Ba/F3 (A767_dupASV) it was 1 to 10 µM; in the data set with Ba/F3 (H773_V774insSVD), > 10 µM; with Ba/F3 (EGFRwt), 1 to 10 µM. In addition, in data set [1], the CC50 at 3 days is > 10 µM.

Turning to `COc1c(F)cccc1Nc1c2[nH]c3c1C(=O)NCC3CCCCCCN1CCCC(COc3cnccc3-2)C1` (stereo not drawn) [Compound 129, 24-(3-fluoro-2-methoxyanilino)-7,8,9,10,13,14,15,16,17,17a,18,19-dodecahydro-6H,12H-7,11-methano-21,23-(metheno)dipyrido[3,4-b: 4′,3′-f][1,5,14]oxadiazacyclononadecin-20(22H)-one], the CC50 with Ba/F3 (D770_N771insSVD) lay in the range of 0.01 to 0.1 µM; in the data set on Ba/F3 (L858R + T790M) it was 1 to 10 µM; in the data set on Ba/F3 (A767_dupASV), 0.001 to 0.01 µM; in the data set with Ba/F3 (H773_V774insSVD), 0.1 to 1 µM; in the data set with Ba/F3 (EGFRwt), 0.1 to 1 µM. Moreover, the CC50 at 3 days in data set [1] is > 10 µM.

As for `COc1c(F)cccc1Nc1c2[nH]c3c1C(=O)NCC3CC(=O)N1CCN(CCOc3cnccc3-2)CC1` (stereo not drawn) [Compound 131, 20-(3-fluoro-2-methoxyanilino)-6,7,9,10,13,13a,14,15-octahydro-12H-8,11-ethano-17,19-(metheno)dipyrido[3,4-j: 4′,3′-n][1,4,7,12]oxatriazacyclopentadecine-12,16(18H)-dione], the CC50 with Ba/F3 (D770_N771insSVD) was in the range of 0.01 to 0.1 µM; in the data set with Ba/F3 (L858R + T790M), 0.1 to 1 µM; in the data set on Ba/F3 (A767_dupASV), 0.001 to 0.01 µM; with Ba/F3 (H773_V774insSVD), 0.1 to 1 µM; in the data set on Ba/F3 (EGFRwt) it was 0.01 to 0.1 µM. This compound showed a CC50 at 3 days in data set [1] of 1 to 10 µM.

Take `COc1c(F)cccc1Nc1c2[nH]c3c1C(=O)NCC3CC(=O)NCC(=O)NCCCOc1cnccc1-2` (stereo not drawn) [Compound 132, 21-(3-fluoro-2-methoxyanilino)-6,7,8,9,11,12,14,14a,15,16-decahydro-18,20-(metheno)dipyrido[3,4-k: 4′,3′-o][1,5,8,13]oxatriazacyclohexadecine-10,13,17(19H)-trione]: the CC50 with Ba/F3 (D770_N771insSVD) is > 10 µM; with Ba/F3 (L858R + T790M), > 10 µM; with Ba/F3 (A767_dupASV), 1 to 10 µM; with Ba/F3 (H773_V774insSVD), > 10 µM; in the data set on Ba/F3 (EGFRwt) it was > 10 µM. For the same compound, in data set [1], the CC50 at 3 days was > 10 µM.

In the case of `COc1c(F)cccc1Nc1c2[nH]c3c1C(=O)NCC3CCCOCCN(C)CCCOc1cnccc1-2` (stereo not drawn) [Compound 145, 22-(3-fluoro-2-methoxyanilino)-9-methyl-6,7,8,9,10,11,13,14,15,15a,16,17-dodecahydro-19,21-(metheno)dipyrido[3,4-i: 4′,3′-m][1,8,4,12]dioxadiazacycloheptadecin-18(20H)-one], the CC50 in the data set on Ba/F3 (D770_N771insSVD) is 0.01 to 0.1 µM; with Ba/F3 (L858R + T790M), > 10 µM; in the data set with Ba/F3 (A767_dupASV), 0.01 to 0.1 µM; in the data set with Ba/F3 (H773_V774insSVD) it was 0.1 to 1 µM; in the data set on Ba/F3 (EGFRwt), > 10 µM. Moreover, the CC50 at 3 days in data set [1] was > 10 µM.

Take `COc1c(F)cccc1Nc1c2[nH]c3c1C(=O)NC[C@@H]3CC(=O)N1CCC[C@H]1C(=O)NCCCOc1cnccc1-2` [Compound 147, (16aS,22aS)-23-(3-fluoro-2-methoxyanilino)-14,15,16a,17,18,19,22,22a-octahydro-2H,12H-4,6-(metheno)dipyrido[3,4-k: 4′,3′-o]pyrrolo[2,1-g][1,5,8,13]oxatriazacyclohexadecine-3,16,21(1H,5H,13H)-trione]: the CC50 in the data set on Ba/F3 (D770_N771insSVD), in the data set on Ba/F3 (L858R + T790M), in the data set with Ba/F3 (A767_dupASV), with Ba/F3 (H773_V774insSVD) and with Ba/F3 (EGFRwt) was > 10 µM each time. The CC50 at 3 days in data set [1] is > 10 µM.

For the compound `COc1c(F)cccc1Nc1c2[nH]c3c1C(=O)NC[C@H]3CC(=O)N1CCC[C@H]1C(=O)NCCCOc1cnccc1-2` [Compound 148, (16aS,22aR)-23-(3-fluoro-2-methoxyanilino)-14,15,16a,17,18,19,22,22a-octahydro-2H,12H-4,6-(metheno)dipyrido[3,4-k: 4′,3′-o]pyrrolo[2,1-g][1,5,8,13]oxatriazacyclohexadecine-3,16,21(1H,5H,13H)-trione], the CC50 in the data set with Ba/F3 (D770_N771insSVD), in the data set with Ba/F3 (L858R + T790M), in the data set on Ba/F3 (A767_dupASV), in the data set on Ba/F3 (H773_V774insSVD) and in the data set with Ba/F3 (EGFRwt) was > 10 µM throughout. In data set [1], the CC50 at 3 days is > 10 µM.

With `COc1c(F)cccc1Nc1c2[nH]c3c1C(=O)NCC3CC(=O)N(C)CC(=O)NCCCOc1cnccc1-2` (stereo not drawn) [Compound 149, 21-(3-fluoro-2-methoxyanilino)-12-methyl-6,7,8,9,11,12,14,14a,15,16-decahydro-18,20-(metheno)dipyrido[3,4-k: 4′,3′-o][1,5,8,13]oxatriazacyclohexadecine-10,13,17(19H)-trione], the CC50 is 1 to 10 µM in the data set with Ba/F3 (D770_N771insSVD); > 10 µM in the data set with Ba/F3 (L858R + T790M); 1 to 10 µM in the data set on Ba/F3 (A767_dupASV); > 10 µM in the data set with Ba/F3 (H773_V774insSVD); > 10 µM with Ba/F3 (EGFRwt). The CC50 at 3 days in data set [1] was > 10 µM.

Turning to `COc1c(F)cccc1Nc1c2[nH]c3c1C(=O)NCC3CC(=O)NCCOCCOCCOc1cnccc1-2` (stereo not drawn) [Compound 150, 23-(3-fluoro-2-methoxyanilino)-6,7,9,10,13,14,16,16a,17,18-decahydro-20,22-(metheno)dipyrido[3,4-m: 4′,3′-q][1,4,7,10,15]trioxadiazacyclooctadecine-15,19(12H,21H)-dione], the CC50 in the data set with Ba/F3 (D770_N771insSVD), in the data set with Ba/F3 (L858R + T790M), in the data set on Ba/F3 (A767_dupASV), in the data set with Ba/F3 (H773_V774insSVD) and in the data set on Ba/F3 (EGFRwt) was > 10 µM in each case. Also, the CC50 at 3 days in data set [1] was > 10 µM.

(Values after US20250282795A1, “EGFR Inhibitors in cancer treatment” (Celyn Therapeutics, Inc., priority 2022, published 2025).)
